Consider 1 molecule from article PMC7067850, “Identification of highly potent and selective inhibitor, TIPTP, of the p22phox-Rubicon axis as a therapeutic agent for rheumatoid arthritis” (Scientific Reports, 2020).

In the experiment the test system is synoviocytes from RA patients. Description: Synoviocytes from RA patients ex vivo (co-IP, confocal, ELISA, immunoblot). Type of experiment: cell-based, human. An excerpt: Synovial tissue specimens were obtained from all female patients with RA (n = 16, 60.5 years ± 6.0) or OA (n = 10, 59.5 years ± 7.2) during open synovectomy or joint replacement surgery at Hanyang University Hospital. All patients gave informed consent, and the procedure was approved by the Ethics Committee of Hanyang University Hospital approved this study (2017-05-003). This study was approved by the bioethics committee of The Red Cross (Seoul, South Korea), which oversees studies using samples from human subjects, and all methods were performed in accordance with the relevant guidelines and regulations.
Immunoblot and immunoprecipitation assays were performed as described previously[18],[23]. For immunoprecipitation, cells were harvested and then lysed in NP-40 buffer supplemented with a complete protease inhibitor cocktail (Roche). After pre-clearing with protein A/G agarose beads (GE Healthcare Life Science) for 1 h at 4 °C, whole-cell lysates were used for immunoprecipitation with the indicated antibodies. Generally, 1–4 μg of commercial antibody was added to 1 ml of cell lysates and incubated at 4 °C for 8 to 12 h. After the addition of protein A/G agarose beads for 6 h, immunoprecipitants were extensively washed with lysis buffer and eluted with SDS loading buffer by boiling for 5 min.
Cell culture supernatants, mice sera and synovial fluid were analyzed for cytokine content using the BD OptEIA ELISA set (BD Pharmingen) for the detection of TNF-α, IL-6, IL-1β, and IL-18. All assays were performed as recommended by the manufacturer.
Figure 6 TIPTP is active for cells from healthy humans or patients with RA. (a and b) LPS-primed human monocytes were treated with TIPTP (0.01, 0.1, 1 μM) for 30 min, and then activated with ATP for the 30 min. (a) IP with αp22phox or αRubicon, followed by IB with αRubicon or αp22phox. Loading control was used for IB with αActin. (b) Culture supernatants were harvested and analyzed for cytokines by ELISA (left). […] (e) Culture supernatants were harvested and analyzed for cytokines by ELISA (left). […]
Background: In an ELISA, binding on a coated surface is turned into a signal by an enzyme label.

As for `C[C@@H](Oc1cccc(-n2cc3c(n2)CCCC3)c1)C(=O)Nc1nnc(C(F)(F)F)s1` [TIPTP, (R)-2-(3-(4,5,6,7-tetrahydro-2H-indazol-2-yl)phenoxy)-N-(5-(trifluoromethyl)-1,3,4-thiadiazol-2-yl)propanamide], the “p22phox–Rubicon interaction” value (RA patient cells, WB and confocal (Fig. 6c,d)) was “efficiently inhibit”. Further, under “RA patient synoviocytes (Supplemental Fig. 7)”, the “p22phox-NOX2, NOX4, or NOX5 interaction” value is listed as “not inhibit”. Moreover, under “freshly isolated RA synoviocytes without NLRP3 agonists (Fig. 6e)”, the “caspase-1 activation, and IL-1β and IL-18 production” value was “inhibited in a dose-dependent manner”.
